Experimental data from ChEMBL document CHEMBL4425099, “Use of Osmotic Pumps to Establish the Pharmacokinetic-Pharmacodynamic Relationship and Define Desirable Human Performance Characteristics for Aggrecanase Inhibitors” (J Med Chem, 2016).
≈ marks a conversion by molar mass, not a printed value. One block for each compound: values may come before it.

Columns and labels:
Matrilysin = biological target: T1, Matrilysin (Homo sapiens, UniProt P09237); test: Inhibition of human MMP7 using Mca-PQGL-(3-[2,4-dinitrophenyl]-L-2,3-diaminopropionyl)-AR-OH as substrate measured after 2 to 4 hrs by fluorescence analysis
T1 sequence (P09237 whole entry): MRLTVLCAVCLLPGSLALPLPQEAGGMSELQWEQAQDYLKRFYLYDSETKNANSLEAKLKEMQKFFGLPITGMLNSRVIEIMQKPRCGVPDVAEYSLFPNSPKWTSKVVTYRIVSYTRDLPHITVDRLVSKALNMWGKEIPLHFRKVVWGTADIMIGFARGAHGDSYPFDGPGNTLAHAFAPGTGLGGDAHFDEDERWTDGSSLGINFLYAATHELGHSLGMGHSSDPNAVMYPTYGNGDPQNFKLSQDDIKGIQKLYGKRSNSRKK

[1] = Fraction unbound in rat plasma; assay type: ADME, cell-free
[2] = Plasma concentration in Lewis rat model of MIA at […], po administered through infusion pump post 3 days MIA induction; assay type: ADME, organism-based
[3] = Plasma concentration in Lewis rat model of MIA at 6 mg/mL, […] post 3 days MIA induction; assay type: ADME, organism-based
[4] = Plasma concentration in Lewis rat model of MIA at 18 mg/mL, […] post 3 days MIA induction; assay type: ADME, organism-based
[5] = Plasma concentration in Lewis rat model of MIA at 60 mg/mL, […] post 3 days MIA induction; assay type: ADME, organism-based
[6] = Ratio of plasma concentration in Lewis rat model of MIA at […], […] administered through infusion pump post 3 days MIA induction to IC50 for human ADAMTS5 in presence of rat plasma; assay type: ADME, organism-based; conditions: in vivo, 72 h
Rattus norvegicus [7] = test: Reduction in ADAMTS-4/ADAMTS-5 mediated aggrecan cleavage products in Lewis rat model of MIA assessed as aggrecanase-cleaved fragments at […] administered through infusion pump post 3 days MIA induction measured after 4 hrs of last dosage on day 7 by NITEGE sandwich ELISA; assay type: functional
Rattus norvegicus [8] = test: Reduction in ADAMTS-4/ADAMTS-5 mediated aggrecan cleavage products in Lewis rat model of MIA assessed as aggrecanase-cleaved fragments at 60 mg/mL administered through infusion pump post 3 days MIA induction measured after 4 hrs of last dosage on day 7 by NITEGE sandwich ELISA; assay type: functional
[9] = Clearance in rat at 1 mg/kg, iv or 10 mg/kg, po; assay type: ADME, organism-based; conditions: in vivo
[10] = Volume of distribution at steady state in rat at 1 mg/kg, iv or 10 mg/kg, po; assay type: ADME, organism-based; conditions: in vivo, read-out: Vdss
[11] = Half life in rat at 1 mg/kg, iv or 10 mg/kg, po; assay type: ADME, organism-based; conditions: in vivo
[12] = Clearance in dog at 3 mg/kg, iv or 5 mg/kg, po; assay type: ADME, organism-based, Canis lupus familiaris; conditions: in vivo
[13] = Volume of distribution at steady state in dog at 3 mg/kg, iv or 5 mg/kg, po; assay type: ADME, organism-based, Canis lupus familiaris; conditions: in vivo, read-out: Vdss
[14] = Half life in dog at 3 mg/kg, iv or 5 mg/kg, po; assay type: ADME, organism-based, Canis lupus familiaris; conditions: in vivo
[15] = Oral bioavailability in dog at 5 mg/kg; assay type: ADME, organism-based, Canis lupus familiaris; conditions: in vivo
[16] = Clearance in cynomolgus monkey at 1 mg/kg, iv or 5 mg/kg, po; assay type: ADME, organism-based, Macaca fascicularis; conditions: in vivo
[17] = Volume of distribution at steady state in cynomolgus monkey at 1 mg/kg, iv or 5 mg/kg, po; assay type: ADME, organism-based, Macaca fascicularis; conditions: in vivo, read-out: Vdss
[18] = Half life in cynomolgus monkey at 1 mg/kg, iv or 5 mg/kg, po; assay type: ADME, organism-based, Macaca fascicularis; conditions: in vivo
[19] = Oral bioavailability in cynomolgus monkey at 5 mg/kg; assay type: ADME, organism-based, Macaca fascicularis; conditions: in vivo
[20] = Lipophilicity, log P of the compound; assay type: physicochemical; conditions: octanol/water
[21] = Dissociation constant, acidic pKa of the compound; assay type: physicochemical
[22] = Fraction unbound in dog plasma; assay type: ADME, cell-free, Canis lupus familiaris
[23] = Fraction unbound in cynomolgus monkey plasma; assay type: ADME, cell-free, Macaca fascicularis
[24] = Fraction unbound in human plasma; assay type: ADME, cell-free
[25] = Solubility of the compound at pH 2; assay type: physicochemical; conditions: buffer
[26] = Fraction unbound in human liver microsomes; assay type: ADME, Microsome
[27] = Ratio of plasma concentration in Lewis rat model of MIA at 45 mg/kg, po qd administered post 3 days MIA induction measured after 4 hrs of last dosage on day 7 to IC50 for human ADAMTS5 in presence of Lewis rat plasma; assay type: ADME, organism-based; conditions: in vivo
[28] = Plasma concentration in Lewis rat model of MIA at 10 mg/kg, po bid administered post 3 days MIA induction measured after 4 hrs of last dosage on day 7; assay type: ADME, organism-based
[29] = Ratio of plasma concentration in Lewis rat model of MIA at 30 mg/kg, po bid administered post 3 days MIA induction measured after 4 hrs of last dosage on day 7 to IC50 for human ADAMTS5 in presence of Lewis rat plasma; assay type: ADME, organism-based; conditions: in vivo
[30] = Plasma concentration in Lewis rat model of MIA at 1.44 mg/mL, sc administered through infusion pump post 3 days MIA induction; assay type: ADME, organism-based
[31] = Plasma concentration in Lewis rat model of MIA at 10 mg/mL, sc administered through infusion pump post 3 days MIA induction; assay type: ADME, organism-based
[32] = Ratio of plasma concentration in Lewis rat model of MIA at 1.44 mg/mL, sc administered through infusion pump post 3 days MIA induction to IC50 for human ADAMTS5 in presence of rat plasma; assay type: ADME, organism-based; conditions: in vivo, 72 h
[33] = Ratio of plasma concentration in Lewis rat model of MIA at 10 mg/mL, sc administered through infusion pump post 3 days MIA induction to IC50 for human ADAMTS5 in presence of rat plasma; assay type: ADME, organism-based; conditions: in vivo, 72 h
Rattus norvegicus [34] = test: Reduction in ADAMTS-4/ADAMTS-5 mediated aggrecan cleavage products in Lewis rat model of MIA assessed as aggrecanase-cleaved fragments at 1.44 mg/mL, sc administered through infusion pump post 3 days MIA induction measured after 4 hrs of last dosage on day 7 by NITEGE sandwich ELISA; assay type: functional
Rattus norvegicus [35] = test: Reduction in ADAMTS-4/ADAMTS-5 mediated aggrecan cleavage products in Lewis rat model of MIA assessed as aggrecanase-cleaved fragments at 4.3 mg/mL, sc administered through infusion pump post 3 days MIA induction measured after 4 hrs of last dosage on day 7 by NITEGE sandwich ELISA; assay type: functional
Rattus norvegicus [36] = test: Reduction in ADAMTS-4/ADAMTS-5 mediated aggrecan cleavage products in Lewis rat model of MIA assessed as aggrecanase-cleaved fragments at 10 mg/mL, sc administered through infusion pump post 3 days MIA induction measured after 4 hrs of last dosage on day 7 by NITEGE sandwich ELISA; assay type: functional
Rattus norvegicus [37] = test: Reduction in ADAMTS-4/ADAMTS-5 mediated aggrecan cleavage products in Lewis rat model of MIA assessed as aggrecanase-cleaved fragments at 30 mg/mL, sc administered through infusion pump post 3 days MIA induction measured after 4 hrs of last dosage on day 7 by NITEGE sandwich ELISA; assay type: functional
[38] = Solubility of the compound at pH 7.5; assay type: physicochemical; conditions: buffer
[39] = Solubility of the compound at pH 2.2; assay type: physicochemical; conditions: buffer
[40] = AUC in Lewis rat at 10 mg/kg, po; assay type: ADME, organism-based; conditions: in vivo

IC50 (Matrilysin): 100 µM | fraction unbound [1]: 0.206 | concentration at 72 h [2]: 200 nM | concentration at 72 h [3]: 630 nM | concentration at 72 h [4]: 2200 nM | concentration at 72 h [5]: 2900 nM | Ratio [6]: 3.2 | clearance [9]: 13 mL/min/kg | Vd [10]: 3.6 L/kg | half-life [11]: 3.8 h | clearance [12]: 1.3 mL/min/kg | Vd [13]: 0.92 L/kg | half-life [14]: 9.1 h | bioavailability [15]: 74% | clearance [16]: 1 mL/min/kg | Vd [17]: 0.8 L/kg | half-life [18]: 12 h | bioavailability [19]: 100% | logP [20]: 2.29 | pKa [21]: 8.52 | fraction unbound [22]: 0.215 | fraction unbound [23]: 0.229 | fraction unbound [24]: 0.255 | solubility [25]: 12 µg/mL (≈ 0.0315 mM) | fraction unbound [26]: 0.557 | Ratio [27]: 10
Compound: O=C1NC(=O)[C@](CNC(=O)c2cc3cc(C(F)(F)F)ccc3o2)(C2CC2)N1
inhibition (INH) (Rattus norvegicus [7]): 21% | inhibition (INH) (Rattus norvegicus [8]): 59%

IC50 (Matrilysin): 100 µM | concentration at 4 h [28]: 510 nM | Ratio [29]: 46 | concentration at 72 h [30]: 130 nM | concentration at 72 h [31]: 1100 nM | Ratio [32]: 3.7 | Ratio [33]: 31 | solubility [38]: 1740 µg/mL (≈ 4.13 mM) | fraction unbound [1]: 0.143 | solubility [39]: 1750 µg/mL (≈ 4.15 mM) | clearance [9]: 4.8 mL/min/kg | Vd [10]: 0.31 L/kg | half-life [11]: 1.9 h | clearance [12]: 4.8 mL/min/kg | Vd [13]: 0.52 L/kg | half-life [14]: 5.7 h | bioavailability [15]: 93% | clearance [16]: 7.3 mL/min/kg | Vd [17]: 0.59 L/kg | half-life [18]: 6.5 h | bioavailability [19]: 76% | logP [20]: 1.63 | pKa [21]: 7.35 | fraction unbound [22]: 0.196 | fraction unbound [23]: 0.248 | fraction unbound [24]: 0.245 | fraction unbound [26]: 0.719
Compound: Cn1ccnc1[C@]1(CNC(=O)c2cc3cc(C(F)(F)F)ccc3o2)NC(=O)NC1=O
inhibition (INH) (Rattus norvegicus [34]): 16% | inhibition (INH) (Rattus norvegicus [35]): 57% | inhibition (INH) (Rattus norvegicus [36]): 64% | inhibition (INH) (Rattus norvegicus [37]): 76%

IC50 (Matrilysin): 100 µM | AUC [40]: 28 µM·h | concentration at 4 h [28]: 930 nM | Ratio [29]: 54
Compound: CCn1ccnc1[C@]1(CNC(=O)c2cc3cc(C(F)(F)F)ccc3o2)NC(=O)NC1=O

IC50 (Matrilysin): 100 µM | AUC [40]: 21 µM·h | concentration at 4 h [28]: 1400 nM | Ratio [29]: 76
Compound: Cc1cnc([C@]2(CNC(=O)c3cc4cc(C(F)(F)F)ccc4o3)NC(=O)NC2=O)n1C

IC50 (Matrilysin): 100 µM
Compound: Cn1ccnc1[C@]1(CNC(=O)c2cc3cc(Cl)ccc3o2)NC(=O)NC1=O

AUC [40]: 27 µM·h
Compound: Cc1cnc([C@]2(CNC(=O)c3cc4cc(Cl)ccc4o3)NC(=O)NC2=O)n1C

AUC [40]: 20 µM·h
Compound: CCn1ccnc1[C@]1(CNC(=O)c2cc3cc(Cl)ccc3o2)NC(=O)NC1=O
